Reference: patent publication US6861428B2, “Water-soluble phenylpyridazine compounds and compositions containing the same” (Kowa Co., Ltd., priority 2001, dated 2005)
Where a name gives a salt, the structure may show the parent alone. Read-outs that look alike come from different tables or passages of the source.

Columns and labels:
[1] = tested on: interleukin-1β production; test: Inhibitory activity against interleukin-1β production (LPS-stimulated HL-60 cells, ELISA); format: cell-based; conditions: lipopolysaccharide 10 μg/mL, 3 days
Method: Inhibitory Activity Against Interleukin-1β Production
HL-60 cells were cultured for 4 days until confluence on RPMI 1640 medium with 10% fetal bovine serum (FBS) added thereto. The medium was centrifuged. The supernatant was discarded, and the cells were then suspended at 1×10^6 cells/mL on RPMI 1640 medium with 3% FBS, and lipopolysaccharide was added to give a final concentration of 10 μg/mL. The culture was inoculated at 1 mL/well to a 24-well plate. A sample compound was added at 1 μL/well, followed by culturing for 3 days. Three days later, the amount of interleukin-1β in each culture was determined by ELISA. Each IC50 value was determined by a comparison in yield with a control to which no test sample was added.

[2] = Water solubility test; format: physicochemical; conditions: purified water, from amount of water required for dissolution
Method: Each sample compound was weighed in the amount shown in Table 3, to which purified water was added in 0.05 mL aliquots. The solubility (%) of the compound was determined based on the amount of water required for its dissolution.

[3] = Homo sapiens, 72 h, Table 1, read-out: IL-1β production inhibiting activity IC50
[4] = Homo sapiens, 72 h, Table 2, read-out: IL-1β production inhibiting activity IC50

Row | SMILES | melting point [°C] | IC50 [1, 4] [µM] | also measured
1 | Cc1ccc(-c2cc(CN(C)C)c(=O)n(CC(C)C)n2)cc1F.Cl [Example 8, 4-dimethylaminomethyl-6-(3-fluoro-4-methylphenyl)-2-isobutyl-2H-pyridazin-3-one hydrochloride] | 246.5 to 248.5 |  | IC50 [1, 3]: 3.45 µM
2 | Cc1ccc(-c2cc(CN(CCO)CCO)c(=O)n(CC(C)C)n2)cc1 [Example 49, 4-N,N-bis(2-hydroxyethyl)aminomethyl-6-(4-methylphenyl)-2-isobutyl-2H-pyridazin-3-one hydrochloride] |  |  | IC50 ([1]; Table 1, read-out: IL-1β production inhibiting activity IC50): 3.53 µM
3 | CSc1ccc(-c2cc(CN(C)C)c(=O)n(CC(C)C)n2)cc1.Cl [Example 161, 4-dimethylaminomethyl-2-isobutyl-6-[4-(methylthio)phenyl]-2H-pyridazin-3-one hydrochloride] | 216.8 to 218.4 |  | IC50 [1, 3]: 2.78 µM
4 | C#CCNCc1cc(-c2ccc(SC)cc2)nn(CC(C)C)c1=O.Cl [Example 163, 2-isobutyl-6-[4-(methylthio)phenyl]-4-propargylaminomethyl-2H-pyridazin-3-one hydrochloride] | 197.5 to 198.4 |  | IC50 [1, 3]: 2.78 µM
5 | COc1ccc(-c2cc(CN)c(=O)n(CC3CCCC3)n2)cc1F.Cl [Example 188, 4-aminomethyl-2-cyclopentylmethyl-6-(3-fluoro-4-methoxyphenyl)-2H-pyridazin-3-one hydrochloride] |  |  | Solubility (%) [2]: 0.08%
6 | COc1ccc(-c2cc(CN3CCN(C)CC3)c(=O)n(Cc3ccc(F)cc3)n2)cc1F [Example 189, 2-(4-fluorobenzyl)-6-(3-fluoro-4-methoxyphenyl)-4-(4-methyl-1-piperazinyl)methyl-2H-pyridazin-3-one] | 112 to 113 |  | IC50 [1, 3]: 0.87 µM
7 | COc1ccc(-c2cc(CN3CCNCC3)c(=O)n(Cc3ccc(F)cc3)n2)cc1F [Example 192, 2-(4-fluorobenzyl)-6-(3-fluoro-4-methoxyphenyl)-4-(1-piperazinyl)methyl-2H-pyridazin-3-one] | 142 to 143 |  | IC50 [1, 3]: 0.64 µM
8 | COc1ccc(-c2cc(CN)c(=O)n(Cc3ccc(F)cc3)n2)cc1F.Cl [Example 195, 4-aminomethyl-2-(4-fluorobenzyl)-6-(3-fluoro-4-methoxyphenyl)-2H-pyridazin-3-one hydrochloride] |  |  | Solubility (%) [2]: 0.2%
9 | COc1ccc(-c2cc(CN)c(=O)n(Cc3ccc(Cl)cc3)n2)cc1F.Cl [Example 206, 4-aminomethyl-2-(4-chlorobenzyl)-6-(3-fluoro-4-methoxyphenyl)-2H-pyridazin-3-one hydrochloride] |  |  | Solubility (%) [2]: 0.06%
10 | COc1ccc(-c2cc(CN3CCN(C)CC3)c(=O)n(Cc3ccc(F)c(F)c3)n2)cc1F [Example 207, 2-(3,4-difluorobenzyl)-6-(3-fluoro-4-methoxyphenyl)-4-(4-methyl-1-piperazinyl)methyl-2H-pyridazin-3-one] | 135.4 to 136 | 2.7 | 
11 | COc1ccc(-c2cc(CN(C)C)c(=O)n(Cc3ccc(F)c(F)c3)n2)cc1F [Example 208, 2-(3,4-difluorobenzyl)-4-dimethylaminomethyl-6-(3-fluoro-4-methoxyphenyl)-2H-pyridazin-3-one] | 129.9 to 130.4 | 6.1 | 
12 | COc1ccc(-c2cc(CN3CCN(C)CC3)c(=O)n(CC=Cc3ccc(Cl)cc3)n2)cc1F [Example 209, 2-(4-chlorocinnamyl)-6-(3-fluoro-4-methoxyphenyl)-4-(4-methyl-1-piperazinyl)methyl-2H-pyridazin-3-one] | 123.9 to 125.5 | 2.8 | 
13 | COc1ccc(-c2cc(CN3CCN(CCO)CC3)c(=O)n(CC=Cc3ccc(Cl)cc3)n2)cc1F [Example 210, 2-(4-chlorocinnamyl)-6-(3-fluoro-4-methoxyphenyl)-4-[4-(2-hydroxyethyl)-1-piperazinyl]methyl-2H-pyridazin-3-one] |  | 3.1 | 
14 | COc1ccc(-c2cc(CCCN3CCNCC3)c(=O)n(CC3CC3)n2)cc1F [Example 213, 2-cyclopropylmethyl-6-(3-fluoro-4-methoxyphenyl)-4-[3-(1-piperazinyl)propyl]-2H-pyridazin-3-one] |  |  | IC50 [1, 3]: 0.24 µM
15 | COc1ccc(-c2cc(CCCN)c(=O)n(CC3CC3)n2)cc1F [Example 216, 4-(3-aminopropyl)-2-cyclopropylmethyl-6-(3-fluoro-4-methoxyphenyl)-2H-pyridazin-3-one] |  |  | IC50 [1, 3]: 1.14 µM
16 | Cc1cc(-c2cc(CN3CCN(C)CC3)c(=O)n(CCCc3ccc(Cl)cc3)n2)ccc1F [Example 218, 2-[3-(4-chlorophenyl)propyl]-6-(4-fluoro-3-methylphenyl)-4-(4-methyl-1-piperazinyl)methyl-2H-pyridazin-3-one] |  | 6.8 | 
17 | Cc1cc(-c2cc(CN3CCN(C)CC3)c(=O)n(Cc3ccc(Cl)cc3)n2)ccc1F [Example 222, 2-(4-chlorobenzyl)-6-(4-fluoro-3-methylphenyl)-4-(4-methyl-1-piperazinyl)methyl-2H-pyridazin-3-one] | 133.3 to 133.8 | 5.8 | 
18 | Cc1cc(-c2cc(CN3CCN(C)CC3)c(=O)n(Cc3ccccc3Cl)n2)ccc1F [Example 224, 2-(2-chlorobenzyl)-6-(4-fluoro-3-methylphenyl)-4-(4-methyl-1-piperazinyl)methyl-2H-pyridazin-3-one] | 149.7 to 150.9 |  | 
19 | Cc1cc(-c2cc(CCCN)c(=O)n(Cc3ccccc3Cl)n2)ccc1F [Example 227, 4-(3-aminopropyl)-2-(2-chlorobenzyl)-6-(4-fluoro-3-methylphenyl)-2H-pyridazin-3-one] | 80 to 85 | 5.2 | 
20 | Cc1cc(-c2cc(CN3CCN(C)CC3)c(=O)n(CCc3ccc(Cl)cc3)n2)ccc1F [Example 230, 2-[2-(4-chlorophenyl)ethyl]-6-(4-fluoro-3-methylphenyl)-4-(4-methyl-1-piperazinyl)methyl-2H-pyridazin-3-one] |  | 4 | 
21 | Cc1cc(-c2cc(CN3CCN(C)CC3)c(=O)n(Cc3c(Cl)cccc3Cl)n2)ccc1F [Example 231, 2-(2,6-dichlorobenzyl)-6-(4-fluoro-3-methylphenyl)-4-(4-methyl-1-piperazinyl)methyl-2H-pyridazin-3-one] |  | 5.7 | 
22 | Cc1cc(-c2cc(CN)c(=O)n(Cc3ccccc3Cl)n2)ccc1F [Example 237, 4-aminomethyl-2-(2-chlorobenzyl)-6-(4-fluoro-3-methylphenyl)-2H-pyridazin-3-one] | 97.6 to 102.2 |  | 
23 | COc1ccc(-c2cc(CCCN3CCN(C)CC3)c(=O)n(Cc3ccc(F)cc3)n2)cc1F [Example 239, 2-(4-fluorobenzyl)-6-(3-fluoro-4-methoxyphenyl)-4-[3-(4-methyl-1-piperazinyl)propyl]-2H-pyridazin-3-one] | 108 to 109 |  | 
24 | COc1ccc(-c2cc(CN3CCN(C)CC3)c(=O)n(CCCc3ccccc3Cl)n2)cc1F [Example 241, 2-[3-(2-chlorophenyl)propyl]-6-(3-fluoro-4-methoxyphenyl)-4-(4-methyl-1-piperazinyl)methyl-2H-pyridazin-3-one] |  | 6.4 | 
25 | COc1ccc(-c2cc(CN3CCN(C)CC3)c(=O)n(CCCc3ccc(Cl)cc3)n2)cc1F [Example 242, 2-[3-(4-chlorophenyl)propyl]-6-(3-fluoro-4-methoxyphenyl)-4-(4-methyl-1-piperazinyl)methyl-2H-pyridazin-3-one] |  | 7.7 | 
